“And” between values parts separate entries of the source, which are not always exact repeats. Equal values may be shown once.
Assay: molar heat capacity at constant volume
Conditions: Fluid (supercritical or subcritical phases), Vacuum adiabatic calorimetry

CCC [propane]
Conditions | molar heat capacity at constant volume [J/K/mol]
270.15 K, 4427 kPa | 71.74
275.15 K, 7953 kPa | 71.26
280.15 K, 11458 kPa | 71.3
285.15 K, 14939 kPa | 72.63
290.15 K, 18398 kPa | 73.46
295.15 K, 21836 kPa | 74.57
300.15 K, 25251 kPa | 74.61
305.15 K, 28640 kPa | 74.35
310.15 K, 6561 kPa | 74.57
315.15 K, 9049 kPa | 75.23
320.15 K, 11532 kPa | 76.15
325.15 K, 3660 kPa | 77.96
325.15 K, 14008 kPa | 76.37
330.15 K, 5594 kPa | 78.75
330.15 K, 16475 kPa | 76.64
335.15 K, 7530 kPa | 78.31
335.15 K, 18934 kPa | 76.9
340.15 K, 9468 kPa | 77.7
340.15 K, 21386 kPa | 77.21
345.15 K, 11404 kPa | 77.26
345.15 K, 23827 kPa | 76.33
350.15 K, 13339 kPa | 79.46
350.15 K, 26253 kPa | 77.52
355.15 K, 15273 kPa | 77.39
355.15 K, 28668 kPa | 77.43
360.15 K, 17203 kPa | 77.74
365.15 K, 19126 kPa | 78.62
370.15 K, 21044 kPa | 79.15
375.15 K, 5095 kPa | 98.6
380.15 K, 5744 kPa | 93.04
385.15 K, 6404 kPa | 89.6
390.15 K, 7072 kPa | 86.07
395.15 K, 7746 kPa | 84.84
400.15 K, 8425 kPa | 80.43
405.15 K, 9109 kPa | 78.84
410.15 K, 9795 kPa | 79.99
420.15 K, 11176 kPa | 79.81
425.15 K, 11869 kPa | 81.75

CC(C)C [2-methylpropane]
Conditions | molar heat capacity at constant volume
415.15 K, 4254 kPa | 222.08 J/K/mol and 230.8 J/K/mol
420.15 K, 4664 kPa | 202.67 J/K/mol
420.15 K, 4665 kPa | 202.96 J/K/mol
425.15 K, 5082 kPa | 186.05 J/K/mol
425.15 K, 5083 kPa | 187.1 J/K/mol

— the NIST ThermoML archive (doi:10.1007/s10765-005-8592-5)
